Consider 1 compound from patent US20230248657A1, “METHODS OF ADMINISTERING TASTE MASKED PHENYLBUTYRATE AND COMPOSITIONS THEREFOR” (Acer Therapeutics Inc., priority 2020, published 2023).

This series can be described thus: Multi-dose plasma PK of PBA, GPB vs. BUPHENYL (NaPB), TID, fed. Format: in vivo, human. The settings on record: GPB avg. dose 13.5 TID, N = 44, arithmetic mean.

As for `O=C(CCCc1ccccc1)OCC(COC(=O)CCCc1ccccc1)OC(=O)CCCc1ccccc1` [GPB, glycerol phenylbutyrate], the “Plasma PBA AUC0-24” value came out at 443 µg·h/mL, the “Plasma PBA Cmax” value worked out at 51.9 µg/mL and the “Plasma PBA Tmax” value turned out to be 8.0 h.
